US20220381779A1, “METHODS FOR THE DIAGNOSIS OF BURULI ULCER” (INSERM (INSTITUT NATIONAL DE LA SANTÉ ET DE LA RECHERCHE …, priority 2019, published 2022)

Test system: CD4+ T cells
Assay: Neutralizing activity assay: cytokine production by PMA/ionomycin-stimulated CD4+ T cells in contact with mycolactone
Assay type: cell-based, C57Bl/6 mice
Conditions: mycolactone 4 ng/mL, 6 h, compared to positive control (T cells only stimulated)
Method: FIG. 2: Neutralization of mycolactone by cutaneous immunoglobulin from FVB/N mice infected with M. ulcerans. CD4+ lymphocytes were stimulated with PMA/ionomycin. Mycolactone was used at a concentration of 4 ng/mL. Immunoglobulins purified from the skin of A) FVB/N mice or B) C57Bl/6 mice infected with M. ulcerans were used at a ratio of 10 immunoglobulin molecules per molecule of mycolactone. Left panel: IL-2 quantification, Right panel: IFNγ quantification. The data shown correspond to one experiment performed in triplicate (mean±SD).
CD4+ T cells were isolated from the spleens of C57Bl/6 mice by magnetic sorting (MACS technology kit 130-104-454), according to the manufacturer's instructions (Miltenyi Biotec). The purity of CD4+ T-cell preparations was determined by flow cytometry, with PE-conjugated anti-CD4 monoclonal antibody (eBioscience) and FITC-conjugated anti-CD3E monoclonal antibody (eBioscience). […] IL-2 and IFN-γ were quantified by ELISA (eBioscience), according to the manufacturer's instructions (Mouse IL-2 Ready-SET-Go: 88-7024 and Mouse IFN-γ Ready-SET-Go: 88-7314 respectively).
In this context, we assessed whether these antibodies could not only recognized but also neutralized mycolactone, by evaluating cytokines production by T lymphocytes as an indicator of the immunomodulatory property of mycolactone. […]

CC(=C\C=C\C(C)=C\[C@H](O)[C@@H](O)C[C@H](C)O)/C=C(C)/C=C/C(=O)O[C@H]1CCCC(=O)O[C@@H]([C@@H](C)C/C(C)=C/[C@@H](C)[C@H](O)C[C@@H](C)O)C/C=C(\C)C[C@@H]1C [mycolactone, [(6S,7S,9E,12R)-12-[(E,2S,6R,7R,9R)-7,9-dihydroxy-4,6-dimethyldec-4-en-2-yl]-7,9-dimethyl-2-oxo-1-oxacyclododec-9-en-6-yl] (2E,4E,6E,8E,10E,12S,13S,15S)-12,13,15-trihydroxy-4,6,10-trimethylhexadeca-2,4,6,8,10-pentaenoate]
IFNγ production by T cells: greatly decreased | IL-2 production by T cells: greatly decreased
